“And” between values parts separate entries of the source, which are not always exact repeats. Identical values can stand only once.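 Compound exposure: 48 hours, 5 concentrations, 96-well plates. The concentration for 50% growth inhibition is given as GI50. TGI marks complete inhibition of growth.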
Columns and labels:
Assay in all cases: growth of human tumour cells (NCI), 48 h
COLO 205 colon = tested on: COLO 205 colon
HCT-15 colon = tested on: HCT-15 colon
HS 578T breast = tested on: HS 578T breast
NCI-H23 lung = tested on: NCI-H23 lung
PC-3 prostate = tested on: PC-3 prostate
RPMI-8226 leukemia = tested on: RPMI-8226 leukemia
SF-268 CNS = tested on: SF-268 CNS
SR leukemia = tested on: SR leukemia
SW-620 colon = tested on: SW-620 colon
UACC-62 melanoma = tested on: UACC-62 melanoma

Compound | GI50 (COLO 205 colon) | TGI (COLO 205 colon) | GI50 (HCT-15 colon) | TGI (HCT-15 colon) | GI50 (HS 578T breast) | TGI (HS 578T breast) | GI50 (NCI-H23 lung) | TGI (NCI-H23 lung) | GI50 (PC-3 prostate) | TGI (PC-3 prostate) | GI50 (RPMI-8226 leukemia) | TGI (RPMI-8226 leukemia) | GI50 (SF-268 CNS) | TGI (SF-268 CNS) | GI50 (SR leukemia) | TGI (SR leukemia) | GI50 (SW-620 colon) | TGI (SW-620 colon) | GI50 (UACC-62 melanoma) | TGI (UACC-62 melanoma)
CSc1nc(SC)c2cnn(-c3ccnc4cc(Cl)ccc34)c2n1 | > 100 µM | > 100 µM | > 71.3 µM | > 100 µM | 23.3 µM | > 100 µM | 21.2 µM | > 54.9 µM | > 82.3 µM | > 100 µM | > 55.7 µM | > 100 µM | 19.7 µM | 58.1 µM | 7.88 µM | > 31.9 µM | > 59.1 µM | > 100 µM | 33.9 µM | > 100 µM
Cc1cccc2c1NC(=O)[C@@H](NC(=O)[C@H](CCC(F)(F)F)[C@H](CCC(F)(F)F)C(N)=O)N=C2c1cccc(F)c1 | > 100 µM | > 100 µM | > 100 µM | > 100 µM | 20.4 µM | 64 µM | 30.5 µM | > 100 µM | 39.5 µM | > 100 µM | > 100 µM | > 100 µM | 23.2 µM | 70 µM | 49.4 µM | > 100 µM | > 100 µM | > 100 µM | 28.2 µM | > 100 µM
CCCC(c1cc(C(C)(C)C)c(O)cc1C)c1cc(C(C)(C)C)c(O)cc1C | – | 5.4 µM | – | 11.4 µM | – | 9.79 µM | – | 6.24 µM | – | 8.78 µM | – | 5.77 µM | – | 15.1 µM | – | 5.33 µM | – | 10.2 µM | – | 4.95 µM
CN1CCN(C(=O)OCc2nc3c(N4CCOCC4)nc(-c4ccccc4)nc3n2C)CC1 | 1.36 µM | 3.75 µM | 0.317 µM | 1.26 µM | 1.23 µM | 3.93 µM | 1.54 µM | 3.21 µM | 1.09 µM | 2.49 µM | 0.335 µM | 1.87 µM | 1.41 µM | 2.85 µM | 0.35 µM | > 100 µM | 0.329 µM | 1.19 µM | 1.25 µM | 2.52 µM
Nc1ncnc2occ(-c3ccc(NC(=O)Nc4cc(C(F)(F)F)ccc4F)cc3)c12 | 5.27 µM and 3.74 µM | 9.88 µM and 7.13 µM | 6.31 µM and 3.97 µM | 21.7 µM and 13.5 µM | 0.773 µM and 2.09 µM | 9.1 µM and 9.04 µM | 4.62 µM and 2.09 µM | 12.9 µM and 6.86 µM | 5.92 µM and 5.35 µM | 15.8 µM and 16.1 µM | 6.29 µM and 5.04 µM | 17.7 µM and 16.2 µM | 4.68 µM and 2.34 µM | 12.5 µM and 8.02 µM | 2.15 µM and 1.05 µM | 11.7 µM and > 25 µM | 7.71 µM and 4.14 µM | 23.7 µM and 12.1 µM | 4.29 µM and 2.33 µM | 9.76 µM and 5.8 µM
Cc1cc(S(=O)(=O)Nc2n[nH]c(-c3ccc(Cl)cc3)c2C#N)c(S)cc1Cl | > 100 µM | > 100 µM | > 100 µM | > 100 µM | 35.8 µM | > 100 µM | > 100 µM | > 100 µM | > 100 µM | > 100 µM | > 100 µM | > 100 µM | > 100 µM | > 100 µM | > 100 µM | > 100 µM | > 100 µM | > 100 µM | > 100 µM | > 100 µM
CN(CCNc1ccc(C(=N)N)cc1)c1ccc(C(=N)N)cc1 | 17 µM | 41.1 µM | 31.2 µM | > 100 µM | 16.1 µM | 51.9 µM | 21.6 µM | > 100 µM | 53 µM | > 100 µM | – | – | 37.8 µM | > 100 µM | 28.6 µM | > 100 µM | > 100 µM | > 100 µM | 32.6 µM | > 100 µM

— PubChem BioAssay (NCI)
